We go through 15 compounds from ChEMBL document CHEMBL1201862, “PubChem BioAssay data set” (2004).

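Interpolation was linear, between the two tested concentrations surrounding the appropriate level; five concentrations were tested over 48 hours in 96-well plates. GI50: concentration for 50% inhibition of growth.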 The source made the active and inactive calls. Cut-off read from the data, not from the text of the source: active = GI50 up to about 1.1 µM and inactive = higher.

What all share (assay): growth of human tumour cells (NCI), 48 h
Experiment [1] relates to SK-MEL-28.
In experiment [2] the test system is HT-29.
The subject of experiment [3] is RPMI-8226.
Experiment [4] concerns HCT-116.
Experiment [5] has as its system SR.
Experiment [6] deals with U-251.
For experiment [7], the system named is A549.
In experiment [8] the test system is 786-0.
Experiment [9] deals with SW-620.
Experiment [10] has as its system LOX IMVI.
Experiment [11] concerns ACHN.
In experiment [12] the test system is K562.
Experiment [13] relates to HCT-15.
Experiment [14] concerns SNB-19.
For experiment [15], the system named is NCI-H522.

As to `COC(=O)C1=C(O)c2cc(OC)c(OC)cc2C(c2ccc(OC)c(OC)c2)C1` (stereo not drawn), the GI50 in experiment [1] is > 100 µM (inactive); in experiment [2] it was 71.6 µM (inactive); in [3], > 100 µM (inactive); in experiment [4] it was 56.4 µM (inactive); in [5], 38.5 µM (inactive); in experiment [6], > 100 µM (inactive). The GI50 in experiment [7] was > 100 µM (inactive); in experiment [8] it was > 100 µM (inactive); in experiment [9] it was 54.8 µM (inactive); in experiment [10], 69.5 µM (inactive); in experiment [11] it was 77.3 µM (inactive); in [12] it was > 100 µM (inactive). This compound also showed a GI50 in experiment [13] of 78.7 µM.

Regarding `CNS(=O)(=O)NN(C)S(=O)(=O)c1ccc(OC)cc1`, the GI50 in [14], in [2], in [3], in experiment [4], in experiment [5] and in [6] was > 100 µM (inactive) throughout. In addition, the GI50 in experiment [7] is > 100 µM (inactive); in experiment [8], > 100 µM (inactive); in experiment [9] it was > 100 µM (inactive); in experiment [10] it was 91.8 µM (inactive); in experiment [15], > 100 µM (inactive); in [11], > 100 µM (inactive). The GI50 in experiment [12] was > 100 µM (inactive); in experiment [13], more than 100 µM.

Regarding `O=C1N(c2ccccc2)C(=O)C2(SC=NN2Cc2ccccc2)N1c1ccccc1` (stereo not drawn), the GI50 was > 100 µM (inactive) in experiment [14]; > 100 µM (inactive) in experiment [1]; > 100 µM (inactive) in [2]; > 100 µM (inactive) in experiment [4]; 92.7 µM (inactive) in experiment [5]; > 100 µM (inactive) in [6]. In addition, the GI50 in experiment [7], in [8], in experiment [9], in experiment [10], in experiment [15] and in [11] was > 100 µM (inactive) throughout. The GI50 in experiment [12] was > 100 µM (inactive).

As for `O=C(O)CCNS(=O)(=O)c1ccc([N+](=O)[O-])cc1`, the GI50 in [14], in [1], in experiment [2], in [3], in experiment [6] and in experiment [7] was > 100 µM (inactive) each time. Moreover, the GI50 in experiment [8], in experiment [9], in experiment [10], in experiment [15], in experiment [11] and in experiment [12] was > 100 µM (inactive) each time. The same compound registered a GI50 in experiment [13] of more than 100 µM.

On to `C[C@@]12CCCC(=O)N1[C@@H](CO)C(c1ccccc1)O2` (stereo partly drawn), for which the GI50 in experiment [14], in experiment [1], in experiment [2], in experiment [3], in experiment [4] and in experiment [6] was > 100 µM (inactive) throughout. For the same compound, the GI50 in experiment [7], in experiment [8], in [9], in [10], in [11] and in [12] was > 100 µM (inactive) throughout. For the same compound, the GI50 in [13] was more than 100 µM.

With `COC(=O)C1CC(C(=O)OC)c2nc3cc([N+](=O)[O-])ccc3nc21` (stereo not drawn), the GI50 is > 67.9 µM (inactive) in experiment [14]; > 77.3 µM (inactive) in experiment [1]; 51.3 µM (inactive) in experiment [2]; 26.1 µM (inactive) in experiment [3]; 33.7 µM (inactive) in experiment [4]; 98.2 µM (inactive) in experiment [6]. Also, the GI50 in experiment [7] is 43.1 µM (inactive); in experiment [8] it was > 87.9 µM (inactive); in experiment [9], 89.9 µM (inactive); in [10], 22.3 µM (inactive); in [15], 7.93 µM (inactive); in experiment [11], 45.9 µM (inactive). Also, the GI50 in [12] was 14.7 µM (inactive); in [13] it was 17.8 µM.

For `CC#C[I+]c1ccccc1`, the GI50 is 64.6 µM (inactive) in experiment [14]; 23.6 µM (inactive) in experiment [1]; 17.3 µM (inactive) in experiment [2]; 19 µM (inactive) in experiment [4]; 15.1 µM (inactive) in experiment [5]; 15 µM (inactive) in [6]. For the same compound, the GI50 in experiment [7] was 63.8 µM (inactive); in [8], 14.6 µM (inactive); in [10], 13.8 µM (inactive); in experiment [15], 3.05 µM (inactive); in experiment [11], 15.7 µM (inactive); in experiment [12] it was 15.8 µM (inactive).

As to `CCOc1cccc2ccc[n+](CC)c12`, the GI50 is > 100 µM (inactive) in experiment [14]; > 100 µM (inactive) in [1]; 47.3 µM (inactive) in [2]; > 100 µM (inactive) in experiment [3]; 37.1 µM (inactive) in [4]; 48.6 µM (inactive) in [7]. For the same compound, the GI50 in experiment [8] was > 100 µM (inactive); in [9], 81.3 µM (inactive); in experiment [10], 91.6 µM (inactive); in [15], 16.4 µM (inactive); in experiment [11] it was > 100 µM (inactive); in [12], 25.1 µM (inactive).

Consider `CCO/C=C1\N=C(C(Cl)c2ccccc2)OC1=O` (stereo not drawn), for which the GI50 in [14], in [1], in experiment [2], in [3], in experiment [7] and in experiment [8] was > 100 µM (inactive) throughout. Further, the GI50 in experiment [9] is > 100 µM (inactive); in [10], > 100 µM (inactive); in [15], > 100 µM (inactive); in experiment [11], > 100 µM (inactive); in [12], > 100 µM (inactive); in experiment [13], more than 100 µM.

Regarding `Cc1cc(=O)c2c(O)cc3c(c2o1)CC=C(COC1OC(COC2OC(CO)C(O)C(O)C2O)C(O)C(O)C1O)CO3` (stereo not drawn), the GI50 in experiment [14], in experiment [1], in [4], in [5], in experiment [6] and in [7] was > 100 µM (inactive) throughout. For the same compound, the GI50 in [8], in experiment [9], in [10], in [15], in [11] and in experiment [12] was > 100 µM (inactive) throughout. The compound further came in with a GI50 in experiment [13] of more than 100 µM.

Regarding `COc1ccc2c3c1C(=O)CCC3CO2` (stereo not drawn), the GI50 in experiment [14], in [1], in [2], in experiment [3], in experiment [4] and in experiment [6] was > 100 µM (inactive) throughout. The GI50 in experiment [7], in experiment [8], in experiment [9], in experiment [10], in [15] and in experiment [11] was > 100 µM (inactive) in each case. Moreover, the values for the GI50 in experiment [12] and in experiment [13] were > 100 µM (inactive) and more than 100 µM, respectively.

With `CC#C[P+](c1ccccc1)(c1ccccc1)c1ccccc1`, the GI50 in [14] is 3.3 µM (inactive); in experiment [1], 12.2 µM (inactive); in experiment [2], 3.25 µM (inactive); in experiment [4], 2.56 µM (inactive); in experiment [5], 2.88 µM (inactive); in experiment [6], 0.861 µM (active). Moreover, the GI50 in [7] is 7.91 µM (inactive); in experiment [8] it was 1.6 µM (inactive); in [10], 2 µM (inactive); in [15], 0.284 µM (active); in [11], 3.99 µM (inactive); in [12], 1.95 µM (inactive). Also, the GI50 in experiment [13] is 2.66 µM.

Take `Cc1cc2c(=O)cc(-c3ccc(F)cc3)oc2c(C(=O)O)c1C`: the GI50 in experiment [14], in experiment [1], in experiment [2], in [3], in experiment [4] and in [6] was > 100 µM (inactive) in each case. Further, the GI50 in experiment [7], in experiment [8], in experiment [9], in [10], in experiment [15] and in experiment [11] was > 100 µM (inactive) in each case. Further, the GI50 in experiment [12] is > 100 µM (inactive); in [13], more than 100 µM.

Consider `CC1(C)CC2CC(CC(C)(C)C2=O)C1=O`, for which the GI50 in experiment [14], in [1], in [2], in [3], in experiment [4] and in experiment [5] was > 100 µM (inactive) throughout. Besides, the GI50 in experiment [6], in experiment [7], in [8], in experiment [9], in experiment [10] and in experiment [11] was > 100 µM (inactive) in each case. Moreover, the GI50 in experiment [12] is > 100 µM (inactive); in experiment [13], more than 100 µM.

Turning to `Nc1ccc(C(=O)NN2C(=O)C(Cl)C2c2ccccc2Cl)cc1` (stereo not drawn), the GI50 in [14] was 16.9 µM (inactive); in experiment [1], 14.8 µM (inactive); in [2], 10.3 µM (inactive); in [3], 6.25 µM (inactive); in experiment [4] it was 4.21 µM (inactive); in experiment [5], 5.45 µM (inactive). In addition, the GI50 in experiment [6] is 12.3 µM (inactive); in [7], 14.3 µM (inactive); in experiment [8], 1.69 µM (inactive); in experiment [9], 3.46 µM (inactive); in experiment [10], 1.41 µM (inactive); in [15], 1.71 µM (inactive). Moreover, the GI50 in experiment [11] was 16.4 µM (inactive); in experiment [13], 3.01 µM.
